# Source: patent publication US9045563B2, “CXC chemokine receptor 4 (CXCR4) antagonistic polypeptide” (priority 2007, dated 2015)
# Where two headings read alike, the source gives them in different places. Ends that are not written are not given here.
# Experiments:
# [1] = system: X4 tropic HIV-1 NL4-3; conditions: TZM-bl cells; for IC50: read-out: IC50 ± SEM, X4 tropic HIV-1 NL4-3, two days post infection, synthetic peptides
# Method: HIV inhibition test were performed by seeding 4000 P4-R5 MAGI cells (P. Charneau et al., J. Mol. Biol. 241: 651, 1994) in 100 μl of DMEM (10% FCS, 100 U/ml penicillin G, and 100 μg/ml streptomycin sulfate). P4-R5 cells are stably transfected with an LTR-lacZ cassette and upon successful infection by HIV-1 will express—galactosidase in a Tat-dependent manner, which can be detected in a chemiluminescence test. On the following day, aliquots of the fractions were added. Therefor the lyophilized fractions were resuspended in 80 μl of DMEM, and 25 μl each thereof was pipetted to P4-R5 cells, incubated at 37° C. for 1 hour and subsequently infected with HIV-1 NL4—3 (1 ng of p24 antigen). Virus stocks were obtained by transient infection of 293T cells with proviral DNA by the calcium phosphate method (CalPhos™ Mammalian Transfection Kit, Clontech). Virus stocks were harvested 48 hours post transfection, filtrated and used for infection. Three days post infection, β-galactosidase activity in infected P4-R5 cells was detected using GalScreen assay (TROPIX) as recommended by the manufacturer. Briefly, supernatant was removed, 40 μl of a 1:1 dilution of PBS/GalScreen+substrate was added, followed by incubation at room temperature for 30 min. Then 30 μl of the lysates were transferred into 96 well lumiplates. Subsequently, the lumines-cence was detected as relative light units per second in a luminometer (Berthold, ORION). From all measurements, the mean β-galactosidase background activity of non-infected control cells was subtracted. % infection values for each infection were calculated relative to no peptide containing controls (100%). The enzyme activities in measurements without ALB408-423 were set at 100%, and all other values were based thereon. The final purification (7th step) was examined under exactly the same conditions in TZM-bl cells (X. Wei et al., Antimicrob. Agents Chemother. 46: 1896, 2002).
# 1.6 mg of fraction 31 from the 7th step in Example 1 was dissolved in 160 μl of DMEM. Subsequently, 10 μl of serial dilutions of fraction 31 containing ALB408-423 were added to 60 μl of TZM-bl cells (60 μl) and infected with 1 ng of p24 antigen HIV-1 NL4—3 in a total volume of 100 μl. Three days later, infection rates were determined in a GalScreen assay (see Example 1).
# (§1) 5000 TZM-bl cells were seeded in 100 μl of DMEM (10% FCS, 100 U/ml of penicillin G and 100 μg/ml of streptomycin sulfate). ALB408-423 was dissolved in PBS (10 mg/ml). One day later, 20 μl serial dilutions of ALB408-423 in PBS were added to cells and cells were subsequently infected with 0.5 ng of p24 antigen HIV-1 in a total volume of 200 μl. HIV-1 molecular clones differing in coreceptor tropism were used and generated as described (Papkalla et al., J. Virol. 76: 8455-9, 2002).
# Table 1. Antiviral activity of various ALB fragments against X4 tropic HIV-1 NL4-3 infection. TZM-bl cells containing serial dilutions of synthetic peptides were infected with HIV-1 NL4-3 and infection rates were determined and calculated as described in example 1 and 2 at two days post infection. IC50 values were determined using the GraphPad Prism software package.
# Various ALB408-423 derivatives containing N or C terminal deletions or amino acid substitutions (Table 1) were chemically synthesized and lyophilized peptides were dissolved in PBS. The antiviral activity was analyzed in TZM-bl cells using X4 tropic HIV-1 NL4-3 as described (example 4).
# [2] = system: X4 tropic HIV-1 variants NL4-3, P51-Sc, P59-S/27 and P34-S; conditions: TZM-bl cells, 100 μM peptide
# Method: as §1
# (§2) FIG. 3: Chemically synthesized ALB408-423 specifically blocks X4 tropic HIV-1 infection. TZM-bl cells containing indicated dilutions of peptide were infected with HIV-1 variants differing in their coreceptor tropism. 3 days later Gal Screen assay was used to measure infection rates. […] B) Infection rates in the presence of 500 μg/ml ALB408-423 showing that the peptide specifically blocks X4 but not R5 tropic HIV-1 infection. Data shown are mean values±standard deviation derived from triplicate infections relative to PBS containing cells (100% infection).
# (§3) After 3 days, infection was detected using GalScreen assay (TROPIX) (example 1). […] In contrast, CCR5 tropic HIV-1 variants were not inhibited even in the presence of very high doses of ALB408-423 (500 μg/ml) (FIG. 3B). Due to the specific inhibition of the infection caused by X4-tropic HIV-1 variants, it is to be assumed that ALB408-423 interacts with the chemokine receptor CXCR4.
# (§4) Virus stocks were first titrated on TZM-bl cells. Then TZM-bl cells containing 100 μM of peptides were infected with infectivity normalized amounts of X4, dualtropic (X4/R5) or R5 tropic HIV-1.
# (§5) FIG. 10. ALB408-423 and truncated ALB derivatives specifically block X4 tropic HIV-1 infection. TZM-bl cells either containing PBS or 100 μM of indicated peptides were infected with normalized infectivities of X4, dualtropic or R5 tropic HIV-1 clones. Infection rates were measured 2 days post infection using the GalScreen assay. Shown are mean values (% of PBS treated control)±standard deviations derived from triplicate measurements.
# [3] = system: dual tropic (CXCR4 and CCR5 using) variant 92ht593.1; test: Infection of TZM-bl cells by dual tropic HIV-1, GalScreen; format: cell-based; conditions: 100 μM peptide
# Method: as §1, §2, §3, §4, §5
# [4] = system: CCR5 tropic HIV-1 variants; test: Infection of TZM-bl cells by R5 tropic HIV-1 variants, GalScreen; format: cell-based; conditions: 100 μM peptide
# Method: as §1, §2, §3, §4, §5
# [5] = system: X4 tropic HIV-1 NL4-3; test: X4 tropic HIV-1 infection and replication in PBMC, p24 antigen ELISA; format: cell-based; conditions: 100 μM peptide, day 6 post infection
# Method: To analyze the effect of ALB408-423 and derivatives thereof in relevant primary cells, peripheral blood mononuclear cells were isolated from Buffy coat derived from the DRK-Blutspendedienst Baden-Württemberg-Hessen using Ficoll density centrifugation. 1×10^6 PBMC per ml were stimulated with 1 μg/ml phytohemagglutinine (PHA, Oxoid, #3085280) and 10 ng/ml Interleukin 2 (IL-2, Strathmann, #9511192) for three days. Thereafter cells were pelleted and resuspended in IL-2 containing medium. 1.5×10^5 PBMC (250 μl) were seeded in 96 well dishes, peptides were added and cells were infected with […] p24 antigen of X4 tropic HIV-1 NL4-3. Supernatants containing progeny virus were taken at day 1, 3 and 6 post infection. Virus production was measured by p24 antigen ELISA (SAIC-Frederick, Inc [AIDS & Cancer virus program]). […] In the presence of 20 μM peptides virus replication was severely impaired.
# FIG. 11. ALB408-423 and derivatives inhibit X4 tropic HIV-1 infection of peripheral blood mononuclear cells (PBMC). Cells were incubated with indicated concentrations of ALB408-423 or truncated variants and infected with X4 tropic HIV-1. Supernatants obtained after 6 days were analyzed by p24 ELISA. Shown are mean p24 antigen values (ng/ml) derived from triplicate infections±standard deviation.
# [6] = target: T1, CXCR4 (Homo sapiens, UniProt P61073); test: Fluorescent binding assay on whole living cells, CXCL12-TR competition on HEK293 EGFP-hCXCR4; set-up: expressed in transfected cells
# Method: FIG. 17. CXCR4 antagonistic activities of ALB derivatives. […] CXCR4 or CCR5 expressing HEK293 cells were treated with CXCR4 agonist CXCL12 (10 nM) or CCR5 agonist CCL5 (20 nM), respectively, in the absence (no ALB) or presence of indicated ALB derivatives (50 μM). Calcium responses were recorded as described. Data shown are mean values±standard deviation derived from duplicates relative to peak calcium responses after treatment with agonists only (100%). […] CXCR4 expressing HEK293 cells were treated with Texas Red labeled CXCL12 (CXCL12-Tr) in the presence or absence of ALB peptides. Real-time fluorescence monitoring of ligand-receptor interactions was carried out as described.
# [7] = target: T1, CXCR4; set-up: expressed in transfected cells; conditions: read-out: dissociation constant of fluorescent CXCL12 for the CXCR4 receptor; cited from earlier work
# T1 sequence (P61073 whole entry): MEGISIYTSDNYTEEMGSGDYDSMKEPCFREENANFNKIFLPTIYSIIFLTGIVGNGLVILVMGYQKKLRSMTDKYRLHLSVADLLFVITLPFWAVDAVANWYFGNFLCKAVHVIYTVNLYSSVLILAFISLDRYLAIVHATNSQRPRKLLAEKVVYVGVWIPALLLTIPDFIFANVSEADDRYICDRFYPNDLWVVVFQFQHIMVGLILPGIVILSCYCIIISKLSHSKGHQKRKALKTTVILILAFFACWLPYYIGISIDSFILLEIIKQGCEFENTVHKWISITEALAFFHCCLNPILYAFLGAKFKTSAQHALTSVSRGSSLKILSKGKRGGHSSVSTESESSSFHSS
Substance,"antiviral activity against X4 tropic HIV-1 NL4-3 (words, SAR study) [1]",IC50 [1],other results
"ALB408-416: SEQ ID No 15; C terminal truncation of ALB408-423, sequence not printed in Table 1 (LVRYTKKVP; listed as Homo sapiens)",remained active,–,–
"AVRYTKKVPQVS [ALB408A-419, AVRYTKKVPQVS]",inactive peptides,–,–
"FVRYTKKVPQVS [ALB408F-419, FVRYTKKVPQVS]",inactive peptides,–,–
"GVRYTKKVPQVS [ALB408G-419, GVRYTKKVPQVS]",inactive peptides,–,–
IVRYTKKVPQVS [ALB408I-419],–,1.55 ± 1.2 µM,"block of infection by X4 tropic HIV-1 clones (NL4-3, P51-Sc, P34-s) [2]: almost completely; inhibition of dualtropic HIV-1 clone 92ht593.1 [3]: only moderately; effect on R5 tropic HIV-1 infection [4]: no effect; p24 antigen in supernatants [5]: No p24 antigen could be detected"
"KKVPQVSTPTL [ALB413-423, KKVPQVSTPTL]",severely impaired or abrogated antiviral activity,> 100 µM,–
"KVPQVSTPTL [ALB414-423, KVPQVSTPTL]",severely impaired or abrogated antiviral activity,–,–
"LARYTKKV [ALB-V409A, LARYTKKV]",–,32.9 µM,–
"LLVRYTKKVPQVS [ALB407-419, LLVRYTKKVPQVS]",reduced its antiviral activity,–,–
"LVAYTKKV [ALB-R410A, LVAYTKKV]",–,> 1000 µM,–
"LVRATKKV [ALB-Y411A, LVRATKKV]",–,91 µM,–
"LVRYAKKV [ALB-T412A, LVRYAKKV]",–,11.2 ± 0.1 µM,"block of infection by X4 tropic HIV-1 clones (NL4-3, P51-Sc, P34-s) [2]: almost completely; inhibition of dualtropic HIV-1 clone 92ht593.1 [3]: only moderately; effect on R5 tropic HIV-1 infection [4]: no effect"
"LVRYTAKV [ALB-K413A, LVRYTAKV]",–,56 µM,–
"LVRYTK [ALB408-413, LVRYTK]",–,> 50 µM,Kd [6]: > 200 µM
"LVRYTKAV [ALB-K414A, LVRYTKAV]",–,31 µM,–
"LVRYTKK [ALB408-414, LVRYTKK]",remained active,–,–
"LVRYTKKA [ALB-V415A, LVRYTKKA]",–,33 µM,–
"LVRYTKKV [ALB408-415, LVRYTKKV]",remained active,17.4 ± 6.5 µM,–
"LVRYTKKVPQ [ALB408-417, LVRYTKKVPQ]",remained active,19.9 ± 4.1 µM,–
"LVRYTKKVPQV [ALB408-418, LVRYTKKVPQV]",remained active,–,–
"LVRYTKKVPQVS [ALB408-419, LVRYTKKVPQVS]",remained active,4.4 ± 1 µM,"block of infection by X4 tropic HIV-1 clones (NL4-3, P51-Sc, P34-s) [2]: almost completely; inhibition of dualtropic HIV-1 clone 92ht593.1 [3]: only moderately; effect on R5 tropic HIV-1 infection [4]: no effect; p24 antigen in supernatants [5]: only marginal p24 levels"
"LVRYTKKVPQVST [ALB408-420, LVRYTKKVPQVST]",remained active,–,–
"LVRYTKKVPQVSTP [ALB408-421, LVRYTKKVPQVSTP]",remained active,–,–
"LVRYTKKVPQVSTPT [ALB408-422, LVRYTKKVPQVSTPT]",remained active,–,–
"RYTKKVPQVSTPTL [ALB410-423, RYTKKVPQVSTPTL]",severely impaired or abrogated antiviral activity,> 100 µM,–
"TKKVPQVSTPTL [ALB412-423, TKKVPQVSTPTL]",severely impaired or abrogated antiviral activity,> 100 µM,–
"VPQVSTPTL [ALB415-423, VPQVSTPTL]",severely impaired or abrogated antiviral activity,> 100 µM,–
"YTKKVPQVSTPTL [ALB411-423, YTKKVPQVSTPTL]",severely impaired or abrogated antiviral activity,–,–
"fluorescent CXCL12: synthesized human chemokine CXCL12 labeled with Texas Red, fluorescent CXCR4 ligand",–,–,Kd [7]: 0.055 ± 0.015 µM
